Reference: patent publication US20240325394A1, “SALT AND CRYSTAL FORM OF NITROGEN-CONTAINING HETEROCYCLIC DERIVATIVE, PREPARATION METHOD THEREFOR AND APPLICATION THEREOF” (SHANGHAI HANSOH BIOMEDICAL CO., LTD., priority 2020, published 2024)
Like-named read-outs stand apart in the source and are kept apart here.

Key:
Assay type in all cases: in vitro ADME
[1] = Plasma stability, rat plasma; conditions: rat plasma, 37° C.
Method in brief: (§1)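 Compound from a 10 μM working solution in 100 mM phosphate buffer was incubated at 37°C in anticoagulated plasma from each species, with propantheline as positive control. Aliquots taken at 0, 15, 30, 60, 90 and 120 min were quenched in acetonitrile with internal standard. Remaining compound was quantified by LC-MS/MS (positive ESI, MRM).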

[2] = Plasma stability, mouse plasma
Method in brief: as §1

[3] = Plasma stability, dog plasma; conditions: dog plasma, 37° C.
Method in brief: as §1

[4] = molecular target: T1, CYP450 1A2 (Homo sapiens, UniProt P05177); test: CYP enzyme single point inhibition test, human liver microsomes, 1A2; conditions: single point method
T1 construct: from tissue; host or cells: human liver microsomes
T1 sequence (P05177 1-516): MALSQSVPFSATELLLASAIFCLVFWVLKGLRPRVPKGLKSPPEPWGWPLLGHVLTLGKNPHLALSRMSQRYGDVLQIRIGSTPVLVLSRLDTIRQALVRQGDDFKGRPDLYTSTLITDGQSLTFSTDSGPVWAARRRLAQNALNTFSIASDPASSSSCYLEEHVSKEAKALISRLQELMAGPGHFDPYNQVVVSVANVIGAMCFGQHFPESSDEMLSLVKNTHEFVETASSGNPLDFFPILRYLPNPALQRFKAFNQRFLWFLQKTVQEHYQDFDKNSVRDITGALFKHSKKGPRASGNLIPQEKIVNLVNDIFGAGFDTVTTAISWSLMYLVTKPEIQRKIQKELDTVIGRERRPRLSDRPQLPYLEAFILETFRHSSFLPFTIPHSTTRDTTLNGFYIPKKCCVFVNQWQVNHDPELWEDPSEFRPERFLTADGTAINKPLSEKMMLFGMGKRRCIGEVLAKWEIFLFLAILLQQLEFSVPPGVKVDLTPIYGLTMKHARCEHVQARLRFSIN
Protocol: (§2) Using human liver microsomal incubation system, the inhibition of CYP450 enzyme subtypes by compounds was rapidly predicted by single point method.
(§3) 2.5 mM NADPH: 100 mM phosphate buffer was added to 4.165 mg of NADPH (reduced nicotinamide adenine dinucleotide phosphate) to 2 mL. 0.25 mg/mL microsome: 4 mL of 100 mM phosphate buffer was added to 50 μL of 20 mg/mL microsome and mixed well.
(§4) The embodiment compound to be tested was weighed and diluted to 10 mM with DMSO and then diluted to 100 µM with 100 mM phosphate buffer.
(§5) • 1. In a 96-well plate, 40 μL of liver microsomes, 10 μL of substrate, 10 μL of compound to be tested were pre-incubated for 3 min. • 2. 40 μL of NADPH was added. • 3. 300 μL of acetonitrile termination solution containing internal standard was added at 20 min. • 4. Centrifugal injection.

[5] = molecular target: T2, CYP450 2C9 (Homo sapiens, UniProt P11712); test: CYP enzyme single point inhibition test, human liver microsomes, 2C9; conditions: single point method
T2 construct: from tissue; host or cells: human liver microsomes
T2 sequence (P11712 whole entry): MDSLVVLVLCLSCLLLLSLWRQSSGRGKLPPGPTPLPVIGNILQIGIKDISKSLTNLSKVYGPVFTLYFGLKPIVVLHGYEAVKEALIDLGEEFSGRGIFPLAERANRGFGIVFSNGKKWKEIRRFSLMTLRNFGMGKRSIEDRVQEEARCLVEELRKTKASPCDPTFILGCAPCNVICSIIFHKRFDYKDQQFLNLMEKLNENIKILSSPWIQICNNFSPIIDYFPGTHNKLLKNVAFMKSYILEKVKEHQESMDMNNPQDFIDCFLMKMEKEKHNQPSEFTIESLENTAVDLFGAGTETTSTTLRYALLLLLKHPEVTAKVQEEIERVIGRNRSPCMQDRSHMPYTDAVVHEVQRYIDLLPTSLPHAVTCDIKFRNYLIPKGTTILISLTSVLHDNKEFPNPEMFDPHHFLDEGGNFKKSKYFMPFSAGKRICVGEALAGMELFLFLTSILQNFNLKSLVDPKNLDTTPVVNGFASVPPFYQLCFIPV
Protocol: as §2, §3, §4, §5

[6] = molecular target: T3, CYP450 2C19 (Homo sapiens, UniProt P33261); test: CYP enzyme single point inhibition test, human liver microsomes, 2C19; conditions: single point method
T3 construct: from tissue; host or cells: human liver microsomes
T3 sequence (P33261 whole entry): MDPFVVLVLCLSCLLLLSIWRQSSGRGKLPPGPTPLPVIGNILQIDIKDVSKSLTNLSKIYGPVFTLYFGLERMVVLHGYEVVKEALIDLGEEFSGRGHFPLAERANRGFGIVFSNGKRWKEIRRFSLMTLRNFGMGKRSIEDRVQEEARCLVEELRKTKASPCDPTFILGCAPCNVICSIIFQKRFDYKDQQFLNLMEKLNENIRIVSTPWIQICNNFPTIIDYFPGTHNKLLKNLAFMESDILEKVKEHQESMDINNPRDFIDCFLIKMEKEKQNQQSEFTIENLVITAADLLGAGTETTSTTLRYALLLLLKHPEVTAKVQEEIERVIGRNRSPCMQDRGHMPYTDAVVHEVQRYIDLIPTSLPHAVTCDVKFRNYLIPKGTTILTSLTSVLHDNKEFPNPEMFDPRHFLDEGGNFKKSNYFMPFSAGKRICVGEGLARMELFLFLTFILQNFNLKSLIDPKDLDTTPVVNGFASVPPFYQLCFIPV
Protocol: as §2, §3, §4, §5

[7] = molecular target: T4, CYP450 3A4 (Homo sapiens, UniProt P08684); test: CYP enzyme single point inhibition test, human liver microsomes, 3A4 (3A4-M, 3A4-T); conditions: single point method
T4 construct: from tissue; host or cells: human liver microsomes
T4 sequence (P08684 whole entry): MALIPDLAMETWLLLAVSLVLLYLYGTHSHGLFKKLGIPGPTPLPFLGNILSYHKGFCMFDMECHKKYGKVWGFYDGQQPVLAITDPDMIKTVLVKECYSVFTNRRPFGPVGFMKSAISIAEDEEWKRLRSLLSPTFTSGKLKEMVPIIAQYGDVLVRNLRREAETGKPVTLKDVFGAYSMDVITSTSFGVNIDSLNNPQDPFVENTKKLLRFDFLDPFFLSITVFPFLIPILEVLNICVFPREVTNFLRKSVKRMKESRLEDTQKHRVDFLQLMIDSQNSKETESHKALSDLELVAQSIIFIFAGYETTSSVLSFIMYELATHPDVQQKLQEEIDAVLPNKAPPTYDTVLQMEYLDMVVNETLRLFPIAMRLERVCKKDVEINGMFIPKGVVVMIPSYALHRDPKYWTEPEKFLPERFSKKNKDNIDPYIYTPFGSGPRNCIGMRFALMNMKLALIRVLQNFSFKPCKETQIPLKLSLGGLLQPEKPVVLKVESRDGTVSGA
Protocol: as §2, §3, §4, §5

[8] = 3A4-M, read-out: IC50 (μM) 3A4-M
[9] = 3A4-T, read-out: IC50 (μM) 3A4-T

Row | Molecule | Residual rate (%) 0 min [1] [%] | Residual rate (%) 15 min [1] [%] | Residual rate (%) 30 min [1] [%] | Residual rate (%) 60 min [1] [%] | Residual rate (%) 120 min [1] [%] | Residual rate (%) 0 min [3] [%] | Residual rate (%) 15 min [3] [%] | Residual rate (%) 30 min [3] [%] | Residual rate (%) 60 min [3] [%] | Residual rate (%) 120 min [3] [%] | IC50 [4] [µM] | IC50 [5] [µM] | IC50 [6] [µM] | IC50 [7, 8] [µM] | IC50 [7, 9] [µM] | other results
1 | C=CC(=O)N1C[C@H](C)N(c2nc(=O)n(-c3c(SC)ccnc3C(C)C)c3nc(-c4c(N)ccc(Cl)c4F)c(Cl)cc23)C[C@H]1C (atropisomer, axis not shown) [Embodiment 13-1, P-4-((2S,5R)-4-Acryloyl-2,5-dimethylpiperazin-1-yl)-7-(6-amino-3-chloro-2-fluorophenyl)-6-chloro-1-(2-isopropyl-4-(methylthio)pyridin-3-yl)pyrido[2,3-d]pyrimidin-2(1H)-one] | 100.00 | 95.57 | 96.73 | 93.97 | 91.93 | 100.00 | 97.71 | 96.32 | 94.86 | 92.49 | 66.7 | 58.8 | 28.8 | 4.7 | 9.1 | Residual rate (%) 0 min ([2]; mouse, 0.5 μM): 100.00%; Residual rate (%) 15 min ([2]; mouse, 0.5 μM): 100.58%; Residual rate (%) 30 min ([2]; mouse, 0.5 μM): 99.52%; Residual rate (%) 60 min ([2]; mouse, 0.5 μM): 99.64%; Residual rate (%) 120 min ([2]; mouse, 0.5 μM): 92.32%
2 | P-4-((2S,5R)-4-acryloyl-2,5-dimethylpiperazin-1-yl)-6-fluoro-7-(2-fluoro-6-hydroxyphenyl)-1-(2-isopropyl-4-(methylthio)pyridin-3-yl)pyrido[2,3-d]pyrimidin-2(1H)-one [Embodiment 2-1] | 100.00 | 99.04 | 101.03 | 97.16 | 84.63 | 100.00 | 97.87 | 96.23 | 92.42 | 85.48 | > 100 | 84.6 | > 100 | 19 | > 100 | Residual rate (%) 0 min ([2]; mouse plasma, 37° C.): 100.00%; Residual rate (%) 15 min ([2]; mouse plasma, 37° C.): 102.67%; Residual rate (%) 30 min ([2]; mouse plasma, 37° C.): 98.51%; Residual rate (%) 60 min ([2]; mouse plasma, 37° C.): 95.49%; Residual rate (%) 120 min ([2]; mouse plasma, 37° C.): 84.58%
